Reference: article PMC10518255, “A first-in-class pan-lysyl oxidase inhibitor impairs stromal remodeling and enhances gemcitabine response and survival in pancreatic cancer” (Nature Cancer, 2023)

Tested on: KPC mouse model of PDAC
Experiment: Overt metastatic lesions observed during necropsy, KPC survival study
Assay type: in vivo
Settings: for Ascites / overt metastatic lesions, Diaphragm / overt metastatic lesions, Liver / overt metastatic lesions, Lungs / overt metastatic lesions, Small intestine: KPC mice
Procedure: Fig. 4 PXS-5505 administered in a KPC in vivo survival study. a, Schematic of the KPC in vivo survival study. Presence of a primary tumor in KPC mice was confirmed by two independent researchers (positive diagnosis) before commencement of daily treatment (Tx) on one of four treatment arms as follows: vehicle, 0.9% saline; Gem, twice-weekly gemcitabine (100 mg kg^−1 i.p.); PXS-5505, daily PXS-5505 at 20 mg kg^−1 i.p.; and PXS-5505 + Gem, daily PXS-5505 at 20 mg kg^−1 i.p. + twice-weekly gemcitabine (100 mg kg^−1 i.p.). b, Table of median survival (since diagnosis/commencement of treatment) across the four treatment groups (n = 30 biologically independent animals (vehicle), n = 31 biologically independent animals (Gem), n = 36 biologically independent animals (PXS-5505), n = 46 biologically independent animals (PXS-5505 + Gem)). c, Kaplan–Meier curves for overall survival across treatment arms (n = 30 biologically independent animals (vehicle), n = 31 biologically independent animals (Gem), n = 36 biologically independent animals (PXS-5505), n = 46 biologically independent animals (PXS-5505 + Gem)). P values determined by log-rank (Mantel–Cox) test. d, Representative maximum intensity projections of SHG multiphoton imaging for tumors from each treatment group (n = 1 FOV taken from one biologically independent animal per group) at end point (scale bars, 100 μm) and quantification of SHG peak signal intensity (n = 5 biologically independent animals per group and five FOV per animal). Data are mean ± s.d. […] Quantification of metastases (n = 18 biologically independent animals (vehicle), n = 18 biologically independent animals (Gem), n = 17 biologically independent animals (PXS-5505), n = 15 biologically independent animals (PXS-5505 + Gem)). Data are mean ± s.d.
We quantified presence of overt metastatic dissemination to organs across the different treatment groups (Fig. 4f).
For the KPC autochthonous model, gemcitabine HCl (Jomar Life Research) or vehicle control (0.9% saline) was administered by i.p. injection twice weekly (100 mg kg^−1 in saline) on day 2 and 4 of the treatment cycle until the end point was reached. GLP-grade PXS-5505 (20 mg kg^−1 in saline) or vehicle (0.9% saline) was administered daily by i.p. injection. Treatment of mice was initiated upon detection of a palpable tumor, verified by two independent researchers and monitoring of mice continued daily until the experimental end point. End points were defined as development of ascites, overnight weight loss >10% of body weight, hunching posture and/or signs of distress and/or suffering, total weight loss ≥20% from maximum body weight or tumor interfering with mobility and access to food and water. The maximal tumor burden allowed by ethics was not exceeded. At the end point, primary tumors and secondary metastatic organs (including liver, small intestine, diaphragm and lungs) were collected and samples were taken for formalin fixation overnight, unconfined compression analysis and snap-frozen for tissue banking. Fixed tissues were processed according to standard histology protocols and paraffin-embedded.

Compound | Ascites (number of mice) | overt metastatic lesions, Diaphragm (number of mice) | overt metastatic lesions, Liver (number of mice) | overt metastatic lesions, Lungs (number of mice) | overt metastatic lesions, Small intestine (number of mice) | Ascites [%] | overt metastatic lesions, Diaphragm [%] | overt metastatic lesions, Liver [%] | overt metastatic lesions, Lungs [%] | overt metastatic lesions, Small intestine [%]
Cl.Cl.NC/C=C(\F)CS(=O)(=O)c1cccc2cccnc12.O [PXS-5505, (Z)-3-fluoro-4-(quinolin-8-ylsulfonyl)but-2-en-1-amine dihydrochloride monohydrate] | 3/23 | 2/23 | 3/23 | 2/23 | 8/23 | 13 | 9 | 13 | 9 | 35
Nc1ccn([C@@H]2O[C@H](CO)[C@@H](O)C2(F)F)c(=O)n1 [Gem, gemcitabine] | 1/20 | 3/20 | 3/20 | 5/20 | 9/20 | 5 | 15 | 15 | 25 | 45
